In patent US6218425A, “8-substituted B-nor-6-Thiaequilenin compounds having activity as selective estrogen receptor modulators” (Eli Lilly and Company, priority 1997, dated 2001):

Experiments:
ovariectomized rats = assay: Ovariectomized rat model of postmenopausal hyperlipidemia (serum cholesterol, uterine weight, uterine eosinophil infiltration); assay type: in vivo; conditions: for Serum Cholesterol % Decrease / Uterine Weight Increase: versus ovariectomized controls
Experimental: Experimental models of postmenopausal hyperlipidemia are known in the art.
This uterine response to estrogen is well recognized in the art.
As expressed in the data below, estrogenicity also was assessed by evaluating the response of eosinophil infiltration into the uterus.
The data presented in Table 2 reflect the response per treatment group.

estrogen receptor = estrogen receptor (Homo sapiens, UniProt P03372); conditions: competition with 0.5 nM 3H-17β-estradiol, MCF-7 lysate protein, 18 hours at 5° C.
estrogen receptor, sequence (P03372 whole entry): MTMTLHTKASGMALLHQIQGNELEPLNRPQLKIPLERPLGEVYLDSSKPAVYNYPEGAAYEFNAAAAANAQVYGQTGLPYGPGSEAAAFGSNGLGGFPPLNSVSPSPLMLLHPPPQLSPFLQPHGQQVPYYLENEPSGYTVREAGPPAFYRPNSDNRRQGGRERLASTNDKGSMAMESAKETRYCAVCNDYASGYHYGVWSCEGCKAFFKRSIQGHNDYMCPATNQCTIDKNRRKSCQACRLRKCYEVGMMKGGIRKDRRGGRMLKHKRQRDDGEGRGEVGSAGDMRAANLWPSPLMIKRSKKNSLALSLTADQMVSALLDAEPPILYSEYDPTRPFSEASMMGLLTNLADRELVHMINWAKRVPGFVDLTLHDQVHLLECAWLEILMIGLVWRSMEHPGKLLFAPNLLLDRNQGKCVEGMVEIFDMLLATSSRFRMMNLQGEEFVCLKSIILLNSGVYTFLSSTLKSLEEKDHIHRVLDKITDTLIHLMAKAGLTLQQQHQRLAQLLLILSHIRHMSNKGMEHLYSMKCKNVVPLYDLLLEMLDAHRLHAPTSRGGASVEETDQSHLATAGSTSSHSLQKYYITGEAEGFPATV
Experimental: Representative compounds of the present invention were tested in an estrogen receptor binding assay in which the test compounds were allowed to compete for binding with tritiated 17β-estradiol.
In the assay, serial dilutions of the test compound were mixed with 0.5 nM of ^3 H-17β-estradiol, along with 0.5 mg/mL of protein from MCF-7 lysates, to a total volume of 0.14 mL. Binding was allowed to take place for 18 hours at 5° C., followed by the addition of 0.07 mL of dextran/charcoal and centrifugation to remove non-bound radioligand. Aliquots of supernate containing bound radioligand were mixed with scintillant and counted. Relative binding affinity (RBA) was calculated as: [formula]

[1] = test system: MCF-7 breast adenocarcinoma cells; assay: MCF-7 Proliferation Assay; assay type: cell-based; conditions: dose level of 500 nM
Experimental: A. MCF-7 Proliferation Assay Test Procedure MCF-7 breast adenocarcinoma cells (ATCC HTB 22) are maintained in MEM (minimal essential medium, phenol-red free, Sigma St. Louis Mo.) supplemented with 10% fetal bovine serum (FBS) (v/v), L-glutamine (2 mM), sodium pyruvate ([…]), HEPES (10 mM), non-essential amino acids, and bovine insulin (1 ug/mL). Ten days prior to the assay, the MCF-7 cells are switched to maintenance medium supplemented with 10% dextran-coated charcoal stripped fetal bovine serum (DCC-FBS) assay medium in place of the 10% FBS to deplete internal stores of estrogen. MCF-7 cells are removed from the maintenance flasks using a cell dissociating medium (Ca/Mg free HBSS; phenol-red free) supplemented with 10 mM HEPES and 2 mM EDTA. Cells are washed twice with the assay medium and adjusted to 80,000 cells/mL. Approximately 100 uL (8,000 cells)are added to a flat-bottomed micro culture well (Costar 3596) and incubated at 37° C. in a 5% CO2 humidified incubator for 48 hours to allow cell adherence and equilibrium after transfer. […] Samples are counted by liquid scintillation. Fifty percent inhibitory concentration of the test drugs (IC50) are determined versus the control (DMSO).

## COc1ccc2c3c(sc2c1)[C@@H]1CC[C@@H](O)[C@@]1(C)CC3 [Example 5, 3α-Hydroxy-8-methoxy-3aβ-methyl-2,3,3a,4,5,10bα-tetrahydro-1H-benz[b]indeno[5,4-d]thiophene]
Ovariectomized rats; dose 0.01 mg/kg
  Uterine Eosinophil (Vmax) (eosinophil peroxidase, Vmaximum): 2.1
  Serum Cholesterol % Decrease: 14.8%
  Uterine Weight Increase: -5.9%
Ovariectomized rats; dose 0.1 mg/kg
  Uterine Eosinophil (Vmax) (eosinophil peroxidase, Vmaximum): 3.6
  Serum Cholesterol % Decrease: -18.5%
  Uterine Weight Increase: 1.7%
Ovariectomized rats; dose 1.0 mg/kg
  Uterine Eosinophil (Vmax) (eosinophil peroxidase, Vmaximum): 4.5
  Serum Cholesterol % Decrease: 40.9%
  Uterine Weight Increase: 13.7%
Ovariectomized rats; dose 10.0 mg/kg
  Uterine Eosinophil (Vmax) (eosinophil peroxidase, Vmaximum): 18.3
  Serum Cholesterol % Decrease: 87.0%
  Uterine Weight Increase: 103.6%

## C#C[C@]1(O)CC[C@H]2[C@@H]3CCc4cc(O)ccc4[C@H]3CC[C@@]21C [EE2, 17-a-ethynyl estradiol, reference compound]
Ovariectomized rats; EE2 group
  eosinophil infiltration into the uterus (in words): substantial and expected increase in eosinophil infiltration
Ovariectomized rats; dose 0.1 mg/kg
  Uterine Eosinophil (Vmax) (eosinophil peroxidase, Vmaximum): 111.2
  Serum Cholesterol % Decrease: 88.1%
  Uterine Weight Increase: 125.8%
Ovariectomized rats; orally administered at 0.1 mg/kg/day
  serum cholesterol (in words): caused a decrease in serum cholesterol
Ovariectomized rats; orally at 0.1 mg/kg/day, versus ovariectomized animals
  uterine weight (in words): substantially greater than the uterine weight of the ovariectomized animals

## COc1ccc2c3c(sc2c1)[C@@H]1CC[C@@H](O)[C@]1(C)CC3 [Example 4a, 3α-Hydroxy-8-methoxy-3aα-methyl-2,3,3a,4,5,10bα-hexahydro-1H-benz[b]indeno[5,4-d]thiophene]
Ovariectomized rats; dose 0.1 mg/kg
  Uterine Eosinophil (Vmax) (eosinophil peroxidase, Vmaximum): 3.6
  Serum Cholesterol % Decrease: -5.5%
  Uterine Weight Increase: 10.4%
Ovariectomized rats; dose 1.0 mg/kg
  Uterine Eosinophil (Vmax) (eosinophil peroxidase, Vmaximum): 3.3
  Serum Cholesterol % Decrease: -8.1%
  Uterine Weight Increase: 14.8%
Ovariectomized rats; dose 10.0 mg/kg
  Uterine Eosinophil (Vmax) (eosinophil peroxidase, Vmaximum): 2.4
  Serum Cholesterol % Decrease: 63.8%
  Uterine Weight Increase: 37.6%

## C[C@@]12CCc3c(sc4cc(O)ccc34)[C@H]1CC[C@H]2O [Example 11, 3α,8-Dihydroxy-3aα-methyl-2,3,3a,4,5,10bβ-tetrahydro-1H-benz[b]indeno[5,4-d]thiophene]
Estrogen receptor
  Relative binding affinity (RBA): 4

## COc1ccc2c3c(sc2c1)[C@H]1CC[C@H](O)[C@]1(C)CC3 [Example 6, 3β-Hydroxy-8-methoxy-3aα-methyl-2,3,3a,4,5,10bβ-tetrahydro-1H-benz[b]indeno[5,4-d]thiophene]
Ovariectomized rats; dose 0.1 mg/kg
  Uterine Eosinophil (Vmax) (eosinophil peroxidase, Vmaximum): 3.0
  Serum Cholesterol % Decrease: -0.3%
  Uterine Weight Increase: 4.8%
Ovariectomized rats; dose 1.0 mg/kg
  Uterine Eosinophil (Vmax) (eosinophil peroxidase, Vmaximum): 1.2
  Serum Cholesterol % Decrease: -4.7%
  Uterine Weight Increase: 9.8%
Ovariectomized rats; dose 10.0 mg/kg
  Uterine Eosinophil (Vmax) (eosinophil peroxidase, Vmaximum): 8.1
  Serum Cholesterol % Decrease: 63.7%
  Uterine Weight Increase: 86.9%

## COc1ccc2c3c(sc2c1)[C@H]1CC[C@@H](O)[C@]1(C)CC3 [Example 4b, 3α-hydroxy-8-methoxy-3aα-methyl-2,3,3a,4,5,10bβ-hexahydro-1H-benz[b]indeno[5,4-d]thiophene]
Ovariectomized rats; dose 0.1 mg/kg
  Uterine Eosinophil (Vmax) (eosinophil peroxidase, Vmaximum): 3.9
  Serum Cholesterol % Decrease: -12%
  Uterine Weight Increase: -2.6%
Ovariectomized rats; dose 1.0 mg/kg
  Uterine Eosinophil (Vmax) (eosinophil peroxidase, Vmaximum): 3.9
  Serum Cholesterol % Decrease: -4.3%
  Uterine Weight Increase: 10.7%
Ovariectomized rats; dose 10.0 mg/kg
  Uterine Eosinophil (Vmax) (eosinophil peroxidase, Vmaximum): 30.0
  Serum Cholesterol % Decrease: 73.1%
  Uterine Weight Increase: 116.3%

## COc1ccc2c3c(sc2c1)C1=CC[C@H](O)[C@@]1(C)CC3 [Example 1, 3β-Hydroxy-8-methoxy-3aβ-methyl-3,3a,4,5-tetrahydro-2H-benz[b]indeno[5,4-d]thiophene]
Ovariectomized rats; dose 0.01 mg/kg
  Uterine Eosinophil (Vmax) (eosinophil peroxidase, Vmaximum): 4.5
  Serum Cholesterol % Decrease: 30.0%
  Uterine Weight Increase: -4.6%
Ovariectomized rats; dose 0.1 mg/kg
  Uterine Eosinophil (Vmax) (eosinophil peroxidase, Vmaximum): 5.4
  Serum Cholesterol % Decrease: 5%
  Uterine Weight Increase: 6.3%
Ovariectomized rats; dose 1.0 mg/kg
  Uterine Eosinophil (Vmax) (eosinophil peroxidase, Vmaximum): 4.8
  Serum Cholesterol % Decrease: 27.5%
  Uterine Weight Increase: 34.9%
Ovariectomized rats; dose 10.0 mg/kg
  Uterine Eosinophil (Vmax) (eosinophil peroxidase, Vmaximum): 25.2
  Serum Cholesterol % Decrease: 60.3%
  Uterine Weight Increase: 52.7%

## C[C@]12CCc3c(sc4cc(O)ccc34)[C@H]1CC[C@@H]2O [Example 7, 3β,8-Dihydroxy-3aβ-methyl-2,3,3a,4,5,10bβ-tetrahydro-1H-benz[b]indeno[5,4-d]thiophene]
Ovariectomized rats; dose 0.01 mg/kg
  Uterine Eosinophil (Vmax) (eosinophil peroxidase, Vmaximum): 4.8
  Serum Cholesterol % Decrease: 24.3%
  Uterine Weight Increase: -3.2%
Ovariectomized rats; dose 0.1 mg/kg
  Uterine Eosinophil (Vmax) (eosinophil peroxidase, Vmaximum): 4.8
  Serum Cholesterol % Decrease: 13%
  Uterine Weight Increase: 4.4%
Ovariectomized rats; dose 1.0 mg/kg
  Uterine Eosinophil (Vmax) (eosinophil peroxidase, Vmaximum): 3.6
  Serum Cholesterol % Decrease: 45.9%
  Uterine Weight Increase: 9.1%
Ovariectomized rats; dose 10.0 mg/kg
  Uterine Eosinophil (Vmax) (eosinophil peroxidase, Vmaximum): 123.0
  Serum Cholesterol % Decrease: 80.7%
  Uterine Weight Increase: 123.0%
[1]
  inhibition of breast cancer cell proliferation: inhibit breast cancer cell proliferation
Estrogen receptor
  Relative binding affinity (RBA): 11

## C[C@]12CCc3c(sc4cc(O)ccc34)[C@@H]1CC[C@@H]2O [Example 8, 3β,8-Dihydroxy-3aβ-methyl-2,3,3a,4,5,10bα-tetrahydro-1H-benz[b]indeno[5,4-d]thiophene]
Ovariectomized rats; dose 0.01 mg/kg
  Uterine Eosinophil (Vmax) (eosinophil peroxidase, Vmaximum): 4.2
  Serum Cholesterol % Decrease: -1%
  Uterine Weight Increase: 13.7%
Ovariectomized rats; dose 0.1 mg/kg
  Uterine Eosinophil (Vmax) (eosinophil peroxidase, Vmaximum): 4.5
  Serum Cholesterol % Decrease: 10.6%
  Uterine Weight Increase: 1.4%
Ovariectomized rats; dose 1.0 mg/kg
  Uterine Eosinophil (Vmax) (eosinophil peroxidase, Vmaximum): 3.0
  Serum Cholesterol % Decrease: 16.9%
  Uterine Weight Increase: 0.2%
Ovariectomized rats; dose 10.0 mg/kg
  Uterine Eosinophil (Vmax) (eosinophil peroxidase, Vmaximum): 14.7
  Serum Cholesterol % Decrease: 30.7%
  Uterine Weight Increase: 48.4%
Estrogen receptor
  Relative binding affinity (RBA): 16

## C[C@]12CCc3c(sc4cc(O)ccc34)[C@@H]1CC[C@H]2O [Example 9, 3α,8-Dihydroxy-3aβ-methyl-2,3,3a,4,5,10bα-tetrahydro-1H-benz[b]indeno[5,4-d]thiophene]
Ovariectomized rats; dose 0.01 mg/kg
  Uterine Eosinophil (Vmax) (eosinophil peroxidase, Vmaximum): 4.5
  Serum Cholesterol % Decrease: 5.7%
  Uterine Weight Increase: 5.5%
Ovariectomized rats; dose 0.1 mg/kg
  Uterine Eosinophil (Vmax) (eosinophil peroxidase, Vmaximum): 3.3
  Serum Cholesterol % Decrease: 12.4%
  Uterine Weight Increase: 10.2%
Ovariectomized rats; dose 1.0 mg/kg
  Uterine Eosinophil (Vmax) (eosinophil peroxidase, Vmaximum): 3.9
  Serum Cholesterol % Decrease: 32.1%
  Uterine Weight Increase: -5.3%
Ovariectomized rats; dose 10.0 mg/kg
  Uterine Eosinophil (Vmax) (eosinophil peroxidase, Vmaximum): 106.5
  Serum Cholesterol % Decrease: 90.9%
  Uterine Weight Increase: 103.1%
Estrogen receptor
  Relative binding affinity (RBA): 9

## C[C@@]12CCc3c(sc4cc(O)ccc34)[C@@H]1CC[C@H]2O [Example 10, 3α,8-Dihydroxy-3aα-methyl-2,3,3a,4,5,10bα-tetrahydro-1H-benz[b]indeno[5,4-d]thiophene]
Estrogen receptor
  Relative binding affinity (RBA): 4
